In article PMC9643419 (Nature Communications, 2022):

Key:
TEAD1 = TEAD1 (Homo sapiens, UniProt P28347); test: cell-based TEAD1 palmitoylation (alkyne palmitic acid labelling, HEK293A)
TEAD2 = TEAD2 (Homo sapiens, UniProt Q15562); test: in vitro autopalmitoylation of recombinant TEAD2 with alkyne palmitoyl-CoA, click/streptavidin blot; type: biochemical
TEAD4 = TEAD4 (Homo sapiens, UniProt Q15561); test: TEAD4 biochemical palmitoylation assay
TEAD4, sequence (Q15561 whole entry): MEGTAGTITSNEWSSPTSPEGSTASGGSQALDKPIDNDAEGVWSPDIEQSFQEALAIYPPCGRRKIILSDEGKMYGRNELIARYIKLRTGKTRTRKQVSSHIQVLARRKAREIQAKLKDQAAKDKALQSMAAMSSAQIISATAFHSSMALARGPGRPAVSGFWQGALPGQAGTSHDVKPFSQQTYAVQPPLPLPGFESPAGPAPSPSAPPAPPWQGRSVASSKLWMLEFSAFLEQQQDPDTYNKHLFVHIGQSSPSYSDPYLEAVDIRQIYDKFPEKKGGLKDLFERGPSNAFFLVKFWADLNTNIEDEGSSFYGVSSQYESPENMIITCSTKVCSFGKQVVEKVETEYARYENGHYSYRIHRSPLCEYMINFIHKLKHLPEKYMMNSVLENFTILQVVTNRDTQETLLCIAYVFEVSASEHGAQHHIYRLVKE

TEAD2, sequence (Q15562 217-447): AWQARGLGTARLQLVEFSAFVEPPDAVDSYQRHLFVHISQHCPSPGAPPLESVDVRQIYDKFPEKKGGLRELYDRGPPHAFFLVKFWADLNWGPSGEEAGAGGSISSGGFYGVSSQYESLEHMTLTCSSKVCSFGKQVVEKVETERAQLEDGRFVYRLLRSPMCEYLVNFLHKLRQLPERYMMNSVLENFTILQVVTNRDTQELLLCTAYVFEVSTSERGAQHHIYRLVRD
TEAD1, sequence (P28347 whole entry): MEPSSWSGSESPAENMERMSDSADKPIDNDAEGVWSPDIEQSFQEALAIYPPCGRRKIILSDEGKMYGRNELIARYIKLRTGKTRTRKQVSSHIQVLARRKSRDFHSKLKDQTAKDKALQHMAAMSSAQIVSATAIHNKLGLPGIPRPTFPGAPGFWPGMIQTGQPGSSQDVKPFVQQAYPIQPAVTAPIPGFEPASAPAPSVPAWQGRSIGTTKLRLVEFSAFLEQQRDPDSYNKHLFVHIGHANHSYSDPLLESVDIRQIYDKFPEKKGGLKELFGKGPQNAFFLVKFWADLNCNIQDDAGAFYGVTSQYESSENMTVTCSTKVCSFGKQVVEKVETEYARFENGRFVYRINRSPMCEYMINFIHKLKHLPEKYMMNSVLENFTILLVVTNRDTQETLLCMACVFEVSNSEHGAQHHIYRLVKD

Row | IC50 (TEAD2) [nM] | IC50 (TEAD4) [nM] | SMILES | cell-based TEAD1 palmitoylation (alkyne palmitic acid labelling, HEK293A) (TEAD1)
1 | – | – | O=C(CSc1nnc[nH]1)Nc1ccc(C23CC4CC(CC(C4)C2)C3)cc1 [MGH-CP1, 2-((4H−1,2,4-triazol-3-yl)thio)-N-(4-((1 S,3 R,5 S)-adamantan-1-yl)phenyl)acetamide] | MGH-CP12 inhibits TEAD1 palmitoylation in cells more potently than MGH-CP1 (Fig. 1d)
2 | 106 | 852 | O=C(CSc1nnc[nH]1)Nc1ccc(C23CC4CC(CC(C4)C2)C3)cc1Br [MGH-CP12, 2-((4H−1,2,4-triazol-3-yl)thio)-N-(4-((1 S,3 R,5 S)-adamantan-1-yl)−2-bromophenyl)acetamide] | MGH-CP12 inhibits TEAD1 palmitoylation in cells more potently than MGH-CP1 (Fig. 1d)
3 | 617 | – | O=C(CSc1nncs1)Nc1ccc(C23CC4CC(CC(C4)C2)C3)cc1 [MGH-CP28, 2-((1,3,4-thiadiazol-2-yl)thio)-N-(4-((1 S,3 R,5 S)-adamantan-1-yl)phenyl)acetamide] | –
